Patent US20230263758A1, “COMPOSITIONS OF EDTA HAVING ACTIVITY AGAINST PLANKTONIC AND BIOFILM CELLS OF CLINICALLY RELEVANT PATHOGENS” (SterileCare Inc., priority 2022, published 2023)

Experiments:
[1] = tested on: Staphylococcus epidermidis ON170; test: Checkerboard titration, FICI; format: cell-based; details: S. epidermidis ON170; EDTA + ethanol checkerboard
Protocol: (§1) A fourth composition and solution included tetrasodium EDTA with ethanol or chlorhexidine HCl. This fourth composition and solution were created using checkerboard titration methods using micro broth dilution in 96-well microtiter plates. The concentrations of antimicrobials used were based on previously determined MIC values. Briefly, 200 μL of two-fold dilutions of tetrasodium EDTA and ethanol or chlorhexidine HCl were prepared in MH or MH II broth with standardized cell suspension. […] Microtiter plates were incubated at 37° C. for 24 h, and the results were analyzed. Each test was performed in duplicate and included a growth control without adding any antimicrobials.

Escherichia coli ON29 = test: Checkerboard titration, FICI; format: cell-based; details: E. coli ON29; EDTA + ethanol checkerboard
Protocol: as §1

Proteus mirabilis ON153 = test: Checkerboard titration, FICI; format: cell-based; details: P. mirabilis ON153; EDTA + ethanol checkerboard
Protocol: as §1

Candida albicans SK4b = test: Checkerboard titration, FICI; format: cell-based; details: C. albicans SK4b; EDTA + ethanol checkerboard
Protocol: as §1

[2] = tested on: Stenotrophomonas maltophilia ON17; test: Checkerboard titration, FICI; format: cell-based; details: S. maltophilia ON17; EDTA + ethanol checkerboard
Protocol: as §1

Serratia marcescens SK2 = test: Checkerboard titration, FICI; format: cell-based; details: S. marcescens SK2; EDTA + ethanol checkerboard
Protocol: as §1

[3] = tested on: Pseudomonas aeruginosa SK1; test: Checkerboard titration, FICI; format: cell-based; details: P. aeruginosa SK1; EDTA + ethanol checkerboard
Protocol: as §1

[4] = tested on: Staphylococcus aureus ON89; test: Checkerboard titration, FICI; format: cell-based; details: S. aureus ON89; EDTA + ethanol checkerboard
Protocol: as §1

[5] = tested on: 48-h-old biofilms of bacterial and fungal strains; test: MBEC assay, summary, 24 h exposure of 48-h-old biofilms; format: cell-based
Protocol: A biofilm cultivation cell composition was provided. This fifth composition was created using an MBEC Assay® biofilm inoculator, consisting of a polystyrene lid with 96 downward-protruding pegs and a corresponding base used to grow biofilms. A standardized inoculum was diluted in an appropriate biofilm growth medium to achieve a viable cell count of 1.5×10^6 CFU/mL of bacterial cells or 5×10^5 CFU/mL of fungal cells. Then, 150 μL of this inoculum was transferred into each appropriate well, and the peg lids were inserted into the microtiter plates. The plates were sealed with Parafilm and were incubated at optimum temperature for 48 h with slight rocking for bacteria and shaking at 200 rpm for fungal strains. After incubation, the peg lid was removed from the base and rinsed twice with sterile phosphate-buffered saline (PBS) for 2 min to remove loosely attached non-sessile cells. Before the antimicrobial challenge, the pegs in column 1 (n=8) were considered the biofilm growth control; these pegs were removed from the lids, placed into 200 μL of recovery medium, and analyzed for starting biofilm cell numbers as described below. […] After the antimicrobial challenge, the pegs were rinsed twice with sterile PBS for 2 min and placed into a new 96-well plate containing 200 μL of recovery medium. The recovery plates were sealed with Parafilm, and biofilm cells were dislodged from the pegs by sonication for 30 min with a Branson 3510 bath sonicator. The biofilm cells in the recovery medium were serially diluted, and a drop dilution assay was performed to enumerate the viable cells. MBEC values were determined as the minimum concentration of antimicrobials that yielded a viable cell count at or lower than the 125 CFU/mL detection limit.

E. coli SK2 = test: Checkerboard titration, FICI; format: cell-based, Escherichia coli; details: EDTA + ethanol checkerboard
Protocol: as §1

MRSA ON184 = test: Checkerboard titration, FICI; format: cell-based, Staphylococcus aureus; details: EDTA + ethanol checkerboard
Protocol: as §1

C. albicans ON47 = test: Checkerboard titration, FICI; format: cell-based, Candida albicans; details: EDTA + ethanol checkerboard
Protocol: as §1

S. epidermidis SK9 = test: Checkerboard titration, FICI; format: cell-based, Staphylococcus epidermidis; details: EDTA + ethanol checkerboard
Protocol: as §1

[6] = tested on: 48-h old biofilms of bacterial and fungal test organisms; test: Rapid biofilm eradication, 2-h exposure; format: cell-based; details: each agent alone at its MBEC
Protocol: Determining rapid biofilm eradication by tetrasodium EDTA, ethanol, and chlorhexidine HCl alone and in combination was performed. After biofilm formation, control pegs (n=6) were removed and analyzed to determine the starting biofilm cell numbers via the drop dilution method. The 48-h old biofilms on the pegs were exposed to different concentrations of test antimicrobials, dissolved in an appropriate growth medium, for two h to evaluate their efficacy alone and in combination. […] Following treatment, pegs were washed twice with sterile PBS, and the biofilm cells were dislodged into recovery medium and enumerated as described above.
The method for rapid biofilm eradication ability of test antimicrobials alone and in combination against 48-h-old biofilms within two h exposure time included (1) choosing different concentrations of test antimicrobials to assess their potency in eradicating preformed biofilms of study organisms within two h. Then (2) the quantitative recovery from biofilms following exposure to the antimicrobial solutions for bacterial strains (FIGS. 4A-4C) and fungal strains (FIG. 5) was evaluated.

CCO [Ethanol, ethanol, reference compound]
Inhibitory concentration in combination [1]: 0.4 % w/v | Inhibitory concentration in combination (Escherichia coli ON29): 3.125 % w/v | Inhibitory concentration in combination (Proteus mirabilis ON153): 1.6 % w/v | Inhibitory concentration in combination (Candida albicans SK4b): 1.6 % w/v | Inhibitory concentration in combination [2]: 0.4 % w/v | Inhibitory concentration in combination (Serratia marcescens SK2): 3.125 % w/v | Inhibitory concentration in combination [3]: 3.125 % w/v | Inhibitory concentration in combination [4]: 0.4 % w/v | Concentration alone able to eradicate all established biofilms following 24 h of treatment [5]: 5% | Inhibitory concentration in combination (E. coli SK2): 6.25 % w/v | Inhibitory concentration in combination (MRSA ON184): 0.4 % w/v | Inhibitory concentration in combination (C. albicans ON47): 0.4 % w/v | Inhibitory concentration in combination (S. epidermidis SK9): 0.4 % w/v | Eradication of preformed biofilms after 2 h of exposure [6]: failed to eradicate
